Data: patent US8754073B2, “Substituted piperazino-dihydrothienopyrimidines” (Boehringer Ingelheim International GmbH, priority 2007, dated 2014)

The compounds below were run against PDE4B (Homo sapiens, UniProt Q07343) (assay: Scintillation Proximity Assay (SPA) of PDE4B enzyme activity ([H3]-cAMP cleavage)). Details: test substance 1 μM; one-hour incubation of [H3]-cAMP with PDE4B enzyme at 30° C.
Assay type: biochemical
Summary of the method: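 SPA read-out: [H3]-cAMP incubated with PDE4B in assay buffer for 1 h at 30 °C, with and without test compound at 1 μM. Reaction stopped by adding yttrium silicate beads that bind the [H3]-AMP product; after 45 min settling, scintillation counted. Value is % inhibition at 1 μM.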

PDE4B, sequence (Q07343 whole entry, species assumed): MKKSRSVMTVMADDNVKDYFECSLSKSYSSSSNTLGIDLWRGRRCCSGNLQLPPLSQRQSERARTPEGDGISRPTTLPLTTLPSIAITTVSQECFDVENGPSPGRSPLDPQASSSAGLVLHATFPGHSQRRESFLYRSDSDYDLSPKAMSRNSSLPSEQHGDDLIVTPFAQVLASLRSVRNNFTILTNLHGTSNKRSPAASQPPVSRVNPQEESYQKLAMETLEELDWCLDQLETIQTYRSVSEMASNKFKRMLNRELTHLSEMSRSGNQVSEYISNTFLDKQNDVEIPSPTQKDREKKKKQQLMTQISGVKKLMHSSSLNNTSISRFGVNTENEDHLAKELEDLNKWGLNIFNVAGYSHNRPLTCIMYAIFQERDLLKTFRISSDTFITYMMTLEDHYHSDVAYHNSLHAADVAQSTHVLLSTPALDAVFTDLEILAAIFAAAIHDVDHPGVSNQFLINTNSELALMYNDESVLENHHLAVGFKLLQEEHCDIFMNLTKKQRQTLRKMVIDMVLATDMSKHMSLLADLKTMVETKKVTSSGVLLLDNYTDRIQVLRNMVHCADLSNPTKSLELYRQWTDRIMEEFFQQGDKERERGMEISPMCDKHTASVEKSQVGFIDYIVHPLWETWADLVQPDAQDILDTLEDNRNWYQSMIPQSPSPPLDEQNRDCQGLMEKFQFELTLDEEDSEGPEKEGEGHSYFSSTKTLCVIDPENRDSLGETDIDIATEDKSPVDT

| inhibition at 1 µM [%] | Compound |
| --- | --- |
| 85 | CN1C(=O)Nc2ccccc2C12CCN(c1nc3c(c(NC4(CO)CC4)n1)[S+]([O-])CC3)CC2 (centres unmarked) [Example 28, 1-(4-(1-Hydroxymethylcyclopropylamino)-5-Oxo-6,7-Dihydro-5H-5λ^4-Thieno[3,2-d]Pyrimidin-2-Yl)-3′-Methyl-1′H-Spiro[Piperidin-4,4′-Quinazolin]-2′(3′H)-One] |
| 85 | CN1C[C@@H](Nc2nc(N3CCC(c4ccc(Cl)cc4)CC3)nc3c2S(=O)(=O)CC3)CCC1=O [Example 335, 5-{2-[4-(4-chlorophenyl)-piperidin-1-yl]-5.5-dioxo-6,7-dihydro-5H-5λ^6-thieno[3,2-d]pyrimidin-4-ylamino}-1-methylpiperidin-2-one] |
| 88 | CN1C(=O)Nc2ccccc2C12CCN(c1nc3c(c(NC4CCOCC4)n1)[S+]([O-])CC3)CC2 (centres unmarked) [Example 58, 3′-Methyl-1-(4-(Tetrahydro-2H-Pyran-4-Ylamino)-5-Oxo-6,7-Dihydro-5H-5λ^4-Thieno[3,2-d]Pyrimidin-2-Yl)-1′H-Spiro[Piperidin-4,4′-Quinazolin]-2′(3′H)-One] |
| 89 | CS(=O)(=O)N1CC2(CCN(c3nc4c(c(NC5(CO)CC5)n3)[S+]([O-])CC4)CC2)c2ccccc21 (centres unmarked) [Example 30] |
| 94 | CC(C)c1noc(C2CCN(c3nc4c(c(Nc5cccc(F)c5)n3)[S+]([O-])CC4)CC2)n1 (centres unmarked) [Example 144] |
| 96 | [O-][S+]1CCc2nc(N3CCC(c4noc5cc(F)ccc45)CC3)nc(NC3CCOCC3)c21 (centres unmarked) [Example 121] |
| 94 | [O-][S+]1CCc2nc(N3CCC(c4cccc(Br)c4)CC3)nc(NC3(CO)CC3)c21 (centres unmarked) [Example 94] |
| 60 | CC(C)[C@H](CO)Nc1nc(N2CCC3(CC2)c2ccccc2NC(=O)N3C)nc2c1[S+]([O-])CC2 (stereo partly drawn) [Example 14, (R)-1-(4-(1-Hydroxy-3-Methylbutan-2-Ylamino)-5-Oxo-6,7-Dihydro-5H-5λ^4-Thieno[3,2-d]Pyrimidin-2-Yl)-3′-Methyl-1′H-Spiro[Piperidin-4,4′-Quinazolin]-2′(3′H)-One] |
| 94 | [O-][S+]1CCc2nc(N3CCC(c4nc(-c5ccncc5)no4)CC3)nc(NC3(CO)CC3)c21 (centres unmarked) [Example 116] |
| 96 | N#Cc1ccc(C2CCN(c3nc4c(c(Nc5cccc(F)c5)n3)[S+]([O-])CC4)CC2)cc1 (centres unmarked) [Example 79] |
| 94 | COc1ccc(C2CCN(c3nc4c(c(NC5CCOCC5)n3)[S+]([O-])CC4)CC2)cc1 (centres unmarked) [Example 117] |
| 95 | N#Cc1ccc(C2CCN(c3nc4c(c(NC5(CO)CC5)n3)[S+]([O-])CC4)CC2)cc1 (centres unmarked) [Example 35] |
| 96 | [O-][S+]1CCc2nc(N3CCC(c4c[nH]c5ccccc45)CC3)nc(NC3(CO)CC3)c21 (centres unmarked) [Example 26] |
| 94 | [O-][S+]1CCc2nc(N3CCC(c4ccc(Cl)cc4)CC3)nc(NC3(CO)CC3)c21 (centres unmarked) [Example 2, (1-{2-[4-(4-Chlorophenyl)-Piperidin-1-Yl]-5-Oxo-6,7-Dihydro-5H-5λ^4-Thieno[3,2-d]Pyrimidin-4-Ylamino}-Cyclopropyl)-Methanol] |
| 92 | CC(C)c1noc(C2CCN(c3nc4c(c(NC5(CO)CC5)n3)[S+]([O-])CC4)CC2)n1 (centres unmarked) [Example 113] |
| 92 | O=C1Nc2ccccc2C2(CCN(c3nc4c(c(NC5(CO)CC5)n3)[S+]([O-])CC4)CC2)O1 (centres unmarked) [Example 36] |
| 88 | [O-][S+]1CCc2nc(N3CCC(c4nnc5ccccn45)CC3)nc(NC3(CO)CC3)c21 (centres unmarked) [Example 108] |
| 91 | CC(C)(O)[C@H](Nc1nc(N2CCC(c3ccc(Cl)cc3)CC2)nc2c1[S+]([O-])CC2)c1ccc(F)cc1 (stereo partly drawn) [Example 4, (R)-1-{2-[4-(4-chlorophenyl)-piperidin-1-yl]-5-oxo-6,7-dihydro-5H-5λ^4-thieno[3,2-d]pyrimidin-4-ylamino}-1-(4-fluorophenyl)-2-methylpropan-2-ol] |
| 93 | Cc1noc(C2CCN(c3nc4c(c(NC5CCOCC5)n3)[S+]([O-])CC4)CC2)n1 (centres unmarked) [Example 68] |
| 95 | CN1C[C@@H](Nc2nc(N3CCC(c4c[nH]cn4)CC3)nc3c2[S+]([O-])CC3)CCC1=O (some centres unmarked) [Example 42] |
| 95 | [O-][S+]1CCc2nc(N3CCC(c4noc5cc(F)ccc45)CC3)nc(Nc3cccc(F)c3)c21 (centres unmarked) [Example 136] |
| 95 | [O-][S+]1CCc2nc(N3CCC(O)(c4cc(F)cc(F)c4)CC3)nc(NC3(CO)CC3)c21 (centres unmarked) [Example 33] |
| 97 | CN1C[C@@H](Nc2nc(N3CCC(c4cccc(O)c4)CC3)nc3c2[S+]([O-])CC3)CCC1=O (some centres unmarked) [Example 46] |
| 93 | [O-][S+]1CCc2nc(N3CCC(c4ccc(F)cc4)CC3)nc(NC3CCOCC3)c21 (centres unmarked) [Example 10] |
| 65 | O=S1(=O)CCc2nc(N3CCC(c4ccc(Cl)cc4)CC3)nc(NC3CCOCC3)c21 [Example 334, {2-[4-(4-chlorophenyl)-piperidin-1-yl]-5.5-dioxo-6,7-dihydro-5H-5λ^6-thieno[3,2-d]pyrimidin-4-yl}-(tetrahydropyran-4-yl)-amine] |

Same assay, conditions: test substance 1 μM; one-hour incubation with [H3]-cAMP at 30° C.

| inhibition at 1 µM [%] | Compound |
| --- | --- |
| 92 | [O-][S+]1CCc2nc(N3CCC(Oc4ccc(F)cc4)CC3)nc(NC3CCOCC3)c21 (centres unmarked) [Example 166] |
| 94 | Cc1nn(C)c(C)c1CNC(=O)c1ccc(OC2CCN(c3nc4c(c(NC5CCOCC5)n3)[S+]([O-])CC4)CC2)cc1 (centres unmarked) [Example 243] |
| 94 | CN1C[C@@H](Nc2nc(N3CCC(Oc4ccncc4)CC3)nc3c2[S+]([O-])CC3)CCC1=O (some centres unmarked) [Example 264] |
| 89 | COCC1(c2ccc(Cl)cc2)CCN(c2nc3c(c(NC4(CO)CC4)n2)[S+]([O-])CC3)CC1 (centres unmarked) [Example 303] |
| 89 | [O-][S+]1CCc2nc(N3CCC(CO)(c4ccc(Cl)cc4)CC3)nc(Nc3cccc(F)c3)c21 (centres unmarked) [Example 291] |
| 90 | O=C(c1cccc(C2CCN(c3nc4c(c(NC5CCOCC5)n3)[S+]([O-])CC4)CC2)c1)N1CCOCC1 (centres unmarked) [Example 247] |
| 75 | [O-][S+]1CCc2nc(N3CCC(Oc4ccccc4Cl)CC3)nc(NC3CCOCC3)c21 (centres unmarked) [Example 179] |
| 79 | CC(C)C(=O)N1CCc2ccc(OC3CCN(c4nc5c(c(NC6CCOCC6)n4)[S+]([O-])CC5)CC3)cc2CC1 (centres unmarked) [Example 215] |
| 96 | CN1C[C@@H](Nc2nc(N3CCC(C(=O)c4ccc(F)cc4)(c4ccc(F)cc4)CC3)nc3c2[S+]([O-])CC3)CCC1=O (some centres unmarked) [Example 203, 5-{2-[4-(4-fluorobenzoyl)-4-(4-fluorophenyl)-piperidin-1-yl]-5-oxo-6,7-dihydro-5H-5λ^4-thieno[3,2-d]pyrimidin-4-ylamino}-1-methylpiperidin-2-one] |
| 97 | Cn1nc(-c2ccco2)cc1C1CCN(c2nc3c(c(NC4CCOCC4)n2)[S+]([O-])CC3)CC1 (centres unmarked) [Example 200, {2-[4-(5-furan-2-yl-2-methyl-2H-pyrazol-3-yl)-piperidin-1-yl]-5-oxo-6,7-dihydro-5H-5λ^4-thieno[3,2-d]pyrimidin-4-yl}-(tetrahydropyran-4-yl)-amine] |
| 95 | CN(C(=O)c1ccc(OC2CCN(c3nc4c(c(NC5CCOCC5)n3)[S+]([O-])CC4)CC2)cc1)C1CCOCC1 (centres unmarked) [Example 237] |
| 96 | CN1C[C@@H](Nc2nc(N3CCC(c4nc5cc(F)ccc5o4)CC3)nc3c2[S+]([O-])CC3)CCC1=O (some centres unmarked) [Example 195, 5-{2-[4-(5-fluorobenzoxazol-2-yl)-piperidin-1-yl]-5-oxo-6,7-dihydro-5H-5λ^4-thieno[3,2-d]pyrimidin-4-ylamino}-1-methylpiperidin-2-one] |
| 94 | O=C(c1cccc(C2CCN(c3nc4c(c(NC5CCOCC5)n3)[S+]([O-])CC4)CC2)c1)N(C1CCOCC1)C1CC1 (centres unmarked) [Example 257] |
| 88 | CC(C)[C@H](CO)Nc1nc(N2CCC(CNS(C)(=O)=O)(c3ccccc3)CC2)nc2c1[S+]([O-])CC2 (some centres unmarked) [Example 326] |
| 91 | [O-][S+]1CCc2nc(N3CCC(OCc4ccccc4)(c4ccc(Cl)cc4)CC3)nc(NC3CCOCC3)c21 (centres unmarked) [Example 319] |
| 89 | CC(C)[C@H](CO)Nc1nc(N2CCC(Oc3ccc(F)cc3)CC2)nc2c1[S+]([O-])CC2 (some centres unmarked) [Example 168] |
| 89 | CC(C)[C@H](CO)Nc1nc(N2CCC(COCc3ccccc3)(c3ccc(Cl)cc3)CC2)nc2c1[S+]([O-])CC2 (some centres unmarked) [Example 307] |
| 93 | CN(C(=O)c1ccc(C2CCN(c3nc4c(c(NC5CCOCC5)n3)[S+]([O-])CC4)CC2)cc1)C1CCOCC1 (centres unmarked) [Example 224] |
| 91 | [O-][S+]1CCc2nc(N3CCC(c4nc(-c5ccccc5)no4)CC3)nc(NC3(CO)CC3)c21 (centres unmarked) [Example 311] |
| 92 | O=C(O)c1ccc(OC2CCN(c3nc4c(c(NC5CCOCC5)n3)[S+]([O-])CC4)CC2)cc1 (centres unmarked) [Example 184, 4-{1-[5-Oxo-4-(Tetrahydropyran-4-Ylamino)-6,7-Dihydro-5H-5λ^4-Thieno[3,2-d]Pyrimidin-2-Yl]-Piperidin-4-Yloxy}-Benzoic Acid] |
| 97 | CC(C)c1noc(C2CCN(c3nc4c(c(N[C@H]5CCC(=O)N(C)C5)n3)[S+]([O-])CC4)CC2)n1 (some centres unmarked) [Example 189] |
| 96 | CC(=O)NCC1(c2ccccc2)CCN(c2nc3c(c(N[C@H]4CCC(=O)N(C)C4)n2)[S+]([O-])CC3)CC1 (some centres unmarked) [Example 204, N-{1-[4-(1-methyl-6-oxopiperidin-3-ylamino)-5-oxo-6,7-dihydro-5H-5λ^4-thieno[3,2-d]pyrimidin-2-yl]-4-phenylpiperidin-4-ylmethyl}-acetamide] |
| 81 | Cc1nn(C)c(C)c1CNC(=O)c1ccc(C2CCN(c3nc4c(c(NC5CCOCC5)n3)[S+]([O-])CC4)CC2)cc1 (centres unmarked) [Example 230] |
| 87 | CC(C)N1CCc2ccc(OC3CCN(c4nc5c(c(NC6CCOCC6)n4)[S+]([O-])CC5)CC3)cc2CC1 (centres unmarked) [Example 235] |
| 93 | CC(C)(NC(=O)c1cccc(C2CCN(c3nc4c(c(NC5CCOCC5)n3)[S+]([O-])CC4)CC2)c1)c1ccncc1 (centres unmarked) [Example 255] |
